Measured values as given in article PMC5706701, “Development of a homogenous high-throughput assay for inositol hexakisphosphate kinase 1 activity” (PLoS ONE, 2017).
Counter-ions that a name gives are not always drawn. Like-named read-outs stand apart in the source and are kept apart here.

Target: T1, Human IP6K1 (Homo sapiens, UniProt Q92551)
T1 construct: GST (N, cleaved yes); made in house; host or cells: C43 E. coli, pGEX-6P-2
Test: IP6K1 high-throughput screen of the Sigma LOPAC (ADP-Glo Max, single point);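 further: final compound concentration 10µM in 5% DMSO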
Type: biochemical

[1] = LOPAC single-point screen, ADP-Glo Max luminescence raw signal per well
[2] = LOPAC single-point screen, Z-score from plate average and StDev
[3] = LOPAC single-point screen, ADP-Glo Max raw signal per well
[4] = LOPAC single-point screen, Z-score from raw signal with plate average and StDev
[5] = LOPAC single-point screen, Z-score against plate average and StDev
[6] = Sigma LOPAC single-point screen, ADP-Glo Max raw signal per well
[7] = Sigma LOPAC single-point screen, Z-score from plate average and StDev
[8] = LOPAC single-point screen, Z-score relative to plate average and StDev

T1 sequence (Q92551 whole entry): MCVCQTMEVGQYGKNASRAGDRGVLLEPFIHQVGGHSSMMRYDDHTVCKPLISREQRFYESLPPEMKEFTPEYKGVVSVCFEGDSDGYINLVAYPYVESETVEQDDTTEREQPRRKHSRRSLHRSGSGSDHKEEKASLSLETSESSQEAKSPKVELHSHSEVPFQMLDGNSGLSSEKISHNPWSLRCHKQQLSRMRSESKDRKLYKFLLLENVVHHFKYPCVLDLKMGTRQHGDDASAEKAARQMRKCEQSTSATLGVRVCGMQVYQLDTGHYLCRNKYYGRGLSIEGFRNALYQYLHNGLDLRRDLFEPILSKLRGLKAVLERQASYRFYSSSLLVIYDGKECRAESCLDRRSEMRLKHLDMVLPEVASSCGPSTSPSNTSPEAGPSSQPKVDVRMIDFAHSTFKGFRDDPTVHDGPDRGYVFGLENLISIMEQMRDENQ

SMILES	Raw Signal [1]	Raw Signal [3]	Z-score [8]	also measured
CNC(=O)Oc1ccc2c(c1)[C@]1(C)CCN(C)[C@@H]1N2C [(-)-Physostigmine]	62569			Z-score [2]: 1.503
C[N+]1(C)[C@@H]2C[C@@H](OC(=O)[C@H](CO)c3ccccc3)C[C@H]1[C@@H]1O[C@@H]12 [(-)-Scopolamine methyl bromide]		55432		Z-score [4]: -0.115
CCN1CCC[C@H]1CNC(=O)c1cc(S(N)(=O)=O)ccc1OC [(-)-Sulpiride]		56775		Z-score [5]: 0.1459
Cl.c1ccc([C@H]2CN3CCSC3=N2)cc1 [(-)-Tetramisole hydrochloride]				Raw Signal: 55029; Z-score: 0.1068
CN(Cc1cnc2nc(N)nc(N)c2n1)c1ccc(C(=O)N[C@@H](CCC(=O)O)C(=O)O)cc1 [(-)Amethopterin]				Raw Signal [6]: 61362; Z-score [7]: 0.6074
NC/C=C/C(=O)O [(E)-4-amino-2-butenoic acid]	52183		-1.009	
O=c1[nH]c(=O)n([C@H]2C[C@H](O)[C@@H](CO)O2)cc1/C=C/Br [(E)-5-(2-Bromovinyl)-2-deoxyuridine]		57888		Z-score [5]: -0.004421
CS(=O)(=O)O.Cc1c(C(=O)c2cccc3ccccc23)c2cccc3c2n1[C@H](CN1CCOCC1)CO3 [(R)-(+)-WIN 55,212-2 mesylate]				Raw Signal [6]: 62593; Z-score [7]: 1.276
N[C@H](C(=O)O)c1cc(O)cc(O)c1 [(S)-3,5-Dihydroxyphenylglycine]	63204			Z-score [2]: 1.632
CC[C@@]1(O)C(=O)OCc2c1cc1n(c2=O)Cc2cc3ccccc3nc2-1 [(S)-(+)-Camptothecin]				Raw Signal [6]: 58626; Z-score [7]: 0.7025
CCCNC[C@H](O)COc1ccccc1C(=O)CCc1ccccc1.Cl [(S)-(-)-propafenone hydrochloride]	52495		-0.6856	
OC[C@H]1O[C@@H](n2cnc3c(N[C@H]4CC5CCC4C5)ncnc32)[C@H](O)[C@@H]1O (stereo partly drawn) [(S)-ENBA]		53537		Z-score [4]: -0.331
C[C@](N)(CCP(=O)(O)O)C(=O)O.Cl [(S)-MAP4 hydrochloride]		53240		Z-score [4]: -0.1938
CC(C)NC[C@H](O)COc1cccc2ccccc12 [(S)-Propranolol hydrochloride]				Raw Signal [6]: 59687; Z-score [7]: 0.7117
C/C=C1\C(=O)C[C@H]2[C@@H]3CCC4=CC(=O)CC[C@]4(C)[C@H]3CC[C@]12C [(Z)-Gugglesterone]	49571		-1.1365	
Cl.NC[C@@H]1O[C@H](C23CC4CC(CC(C4)C2)C3)Cc2c1ccc(O)c2O [A-77636 hydrochloride]		56453		Z-score [4]: -0.2572
CCS(=O)(=O)Nc1cccc(C(=C2CCCCC2)c2cnc[nH]2)c1 [A-315456]		57716		Z-score [5]: -0.03471
CC1=C(C)C(=O)C(CCCCC#CCCCC#CCO)=C(C)C1=O [AA-861]	50345		-1.333	
CNC(=O)[C@H]1O[C@@H](n2cnc3c(NCc4ccc(N)cc4)ncnc32)[C@H](O)[C@@H]1O [AB-MECA]	53262		-0.8192	
O=C(Cc1ccc(Cl)c(Cl)c1)OCCN1CCCC1 [AC 915 oxalate]		57662		Z-score [5]: -0.04423
NC1(C(=O)O)CCc2cc(C(=O)O)ccc21 (centres unmarked) [AIDA]	52578		-0.9397	

SMILES	Raw Signal [1]	Raw Signal [3]	Z-score [8]	also measured
O=C(O)CCC/C=C\C[C@@H]1[C@@H](/C=C/[C@H](O)C2Cc3ccccc3C2)[C@@H](F)C[C@@H]1O [AL-8810]	53863		-0.7133	
CCN(CC)c1ncnc2c1ncn2[C@@H]1O[C@H](COP(=O)([O-])OP(=O)([O-])C(Br)(Br)P(=O)([O-])O)[C@@H](O)[C@H]1O.[Na+].[Na+].[Na+] [ARL 67156 trisodium salt]	54051		-0.6802	
CC(C)(C)c1o[nH]c(=O)c1CC(N)C(=O)O (centres unmarked) [ATPA]		57342		Z-score [4]: -0.1006
CC(C)(C)c1onc(OCP(=O)(O)O)c1CC(N)C(=O)O (centres unmarked) [ATPO]				Raw Signal [6]: 60120; Z-score [7]: 0.3887
CC(N)=O [Acetamide]				Raw Signal [6]: 63288; Z-score [7]: 0.9467
CC(=O)Nc1nnc(S(N)(=O)=O)s1 [Acetazolamide]	54920		-0.5272	
CC(=O)c1ccc(S(=O)(=O)NC(=O)NC2CCCCC2)cc1 [Acetohexamide]				Raw Signal [6]: 64165; Z-score [7]: 1.101
CC(=O)OC(C)C[N+](C)(C)C.[Cl-] (stereo not drawn) [Acetyl-beta-methylcholine chloride]	54689		-0.5679	
CC(=O)Oc1ccccc1C(=O)O [Acetylsalicylic acid]	52950		-0.8741	
CC(=O)SCC[N+](C)(C)C.[Cl-] [Acetylthiocholine chloride]		58613		Z-score [5]: 0.1233
CCCCC[C@H](CC(=O)NO)C(=O)N[C@H](C(=O)N1CCC[C@H]1CO)C(C)C [Actinonin]				Raw Signal [6]: 64769; Z-score [7]: 1.208
Nc1nc2c(ncn2COCCO)c(=O)[nH]1 [Acyclovir]	53270		-0.8178	
NCCNC(=O)Cc1ccc(NC(=O)Cc2ccc(Nc3ncnc4c3ncn4[C@@H]3O[C@H](CO)[C@@H](O)[C@H]3O)cc2)cc1 [Adenosine amine congener]		58651		Z-score [5]: 0.13
Nc1ncnc2c1ncn2[C@@H]1O[C@H](CO)[C@@H](O)[C@H]1O [Adenosine]		56689		Z-score [4]: -0.2156
NCCCCN=C(N)N [Agmatine sulfate]		56032		Z-score [4]: -0.3313
CC1=C[C@@H]2c3cccc4[nH]cc(c34)C[C@H]2N(C)C1 [Agroclavine]	53866		-0.7128	
CC(N)C(=O)OC(C)(C)Cc1ccc(Cl)cc1 (centres unmarked) [Alaproclate hydrochloride]	54794		-0.5494	
CC(C)(C)NCC(O)c1ccc(O)c(CO)c1.CC(C)(C)NCC(O)c1ccc(O)c(CO)c1.O=S(=O)(O)O (centres unmarked) [Albuterol hemisulfate]		54773		Z-score [4]: -0.243
Oc1ncnc2[nH]ncc12 [Allopurinol]		56130		Z-score [4]: -0.3141
O=c1nc2[nH]c3ccccc3nc-2c(=O)[nH]1 [Alloxazine]		56241		Z-score [4]: -0.2945
C=CCc1ccccc1OCC(O)CNC(C)C (centres unmarked) [Alprenolol hydrochloride]				Raw Signal [6]: 60855; Z-score [7]: 0.5181

SMILES	Raw Signal [1]	Raw Signal [3]	Z-score [8]	also measured
CN(C)c1nc(N(C)C)nc(N(C)C)n1 [Altretamine]	69030			Z-score [2]: 1.958
NC12CC3CC(CC(C3)C1)C2 [Amantadine hydrochloride]	68782			Z-score [2]: 1.914
CCn1cc(C(=O)O)c(=O)c2ccc(Cc3ccccc3)nc21 [Amfonelic acid]				Z-score [4]: -0.107
NCCCNCCSP(=O)(O)O [Amifostine]	55102		-0.4951	
N=C(N)NC(=O)c1nc(Cl)c(N)nc1N [Amiloride hydrochloride]				Raw Signal [6]: 63890; Z-score [7]: 1.0527
CN1[C@@H]2CC[C@H]1C[C@@H](OC(c1ccccc1)c1ccccc1N)C2 (some centres unmarked) [Aminobenztropine]		58792		Z-score [5]: 0.1548
NN=C(N)N.NN=C(N)N.O=S(=O)(O)O [Aminoguanidine hemisulfate]		58107		Z-score [5]: 0.03415
Cl.N=C(N)NN [Aminoguanidine hydrochloride]		58743		Z-score [5]: 0.1462
Cn1c(=O)c2[nH]cnc2n(C)c1=O.Cn1c(=O)c2[nH]cnc2n(C)c1=O.NCCN [Aminophylline ethylenediamine]		57914		Z-score [5]: 0.0001585
Nc1nc(N)c2nc(CNc3ccc(C(=O)N[C@@H](CCC(=O)O)C(=O)O)cc3)cnc2n1 [Aminopterin]		55514		Z-score [4]: -0.4225
CCCCc1oc2ccccc2c1C(=O)c1cc(I)c(OCCN(CC)CC)c(I)c1 [Amiodarone hydrochloride]		57216		Z-score [4]: -0.1228
CN(C)CCCO[C@@H]1[C@H]2OC(C)(C)O[C@H]2O[C@@H]1[C@H](O)CO [Amiprilose hydrochloride]	53728		-0.7371	
CN(C)CCC=C1c2ccccc2CCc2ccccc21 [Amitriptyline hydrochloride]	54808		-0.5469	
N.S=C(S)N1CCCC1 [Ammonium pyrrolidinedithiocarbamate]				Raw Signal [6]: 60867; Z-score [7]: 0.9409
Clc1ccc2c(c1)C(N1CCNCC1)=Nc1ccccc1O2 [Amoxapine]	50961		-1.224	
CCNC(=O)N1CCN(CCCC(c2ccc(F)cc2)c2ccc(F)cc2)CC1 [Amperozide hydrochloride]	52806		-0.8995	
COc1cc(NS(C)(=O)=O)ccc1Nc1c2ccccc2nc2ccccc12 [Amsacrine hydrochloride]		58568		Z-score [5]: 0.1153
N=c1ccn2c(n1)O[C@H]1[C@H](O)[C@@H](CO)O[C@H]12 [Ancitabine hydrochloride]		57428		Z-score [5]: -0.08544
C[C@]12CC[C@@H](O)C[C@@H]1CC[C@@H]1[C@@H]2CC[C@]2(C)C(=O)CC[C@@H]12 [Androsterone]				Raw Signal: 54396; Z-score: -0.6195
COc1ccc(C(=O)N2CCCC2=O)cc1 [Aniracetam]		56032		Z-score [4]: -0.3313
Cl.c1ccc(CN(CC2=NCCN2)c2ccccc2)cc1 [Antozoline hydrochloride]	54212		-0.6519	
